Test results: patent US6372297B1, “Wood preservative oxathiazines” (Uniroyal Chemical Company, Inc., priority 1993, dated 2002)

Tests used:
[1] = tested on: blue-stain fungi and molds; experiment: Activity against blue-stain fungi and molds on a stick test on vermiculite (paint film); set-up: key to Surface score of wooden sticks treated with paint formulation, C. cladosporioides / Surface score of wooden sticks treated with paint formulation, P. purpurogenum / Surface score of wooden sticks treated with paint formulation, P. violacea / Surface score of wooden sticks treated with paint formulation, R rubra (y) / Surface score of wooden sticks treated with paint formulation, S. chartarum / Surface score of wooden sticks treated with paint formulation, A. versicolor / Surface score of wooden sticks treated with paint formulation, A. pullulans: 0: No growth; Trace of growth of up to 1% coverage of the test inoculated area; 2: Growth covering between 1 and 10% of the inoculated test area; Growth covering between 10 and 30% of the inoculated test area; 4: Growth covering between 30 and 70% of the inoculated test area; 5: Growth covering more than 70t of the inoculated test area; conditions: 12 weeks on vermiculite; for Surface score of wooden sticks treated with paint formulation, R rubra (y): R rubra (yeast)
Experimental: Beech sticks (73×18×2 mm) Fagus sylvatica were painted, allowed to dry, and sterilized by γ-radiation (1.2 mRad). […] The coated sticks prepared above were then dipped in a spore suspension of pure culture of each fungus. Seven sticks each were placed in autoclaved Petri dishes (200 mm in diameter, 30 mm in height) containing 300 ml of vermiculite and 120 ml of water, and incubated for 12 weeks. The surfaces of the sticks were then examined for the growth of fungus and were evaluated according to the following scoring system: 0: No growth 1: […] 2: […] 3: […] 4. […] 5. Growth covering more than 70t of the inoculated test area.

[2] = tested on: mixed spore suspension of blue-stain fungus and molds; experiment: Activity against blue-stain fungi and molds in a mold cabinet test (BS3900: Part G6); set-up: key: 0: No growth; Trace of growth of up to 1% coverage of the test inoculated area; 2: Growth covering between 1 and 10% of the inoculated test area; Growth covering between 10 and 30% of the inoculated test area; 4: Growth covering between 30 and 70% of the inoculated test area; 5: Growth covering more than 70t of the inoculated test area
Experimental: Using the methods described in BS3900: Part G6: 1989, British Standard Methods of test for paints, “Assessment of resistance to fungal growth”, representative compounds of this invention were tested for activity against blue-stain fungus and molds in a mold cabinet test. In brief, sticks of Scots pine (Pinus sylvestris) measuring 75×100×10 mm, were painted, allowed to dry, and sterilized by […] (1.2 mRad). […] The sticks were then with each solution. The inoculation consisted of dipping the sticks in a mixed spore suspension, then placing them in a mold chamber and incubating them for 12 weeks. The surfaces were evaluated according the following score system: 0: No growth 1: […] 2: […] 3: […] 4. […] 5. Growth covering more than 70% of the inoculated test area.

[3] = tested on: mixed spore suspension: Aureobasidium pullulans, Aspergillus amstelodami, Ceratocystis pilifera, Cladosporium sp., Penicillium sp., Sclerophomas entoxylina …; experiment: Control of molds and sapstain fungi in mini-board test; set-up: key to Surface score of treated mini-boards, 3 week incubation, 1500 ppm / Surface score of treated mini-boards, 3 week incubation, 2500 ppm: 0: Free of fungal growth; 1: Traces of fungal growth; 2: Little fungal growth; 3: Moderate fungal growth; 4: Vigorous to maximum growth (all surfaces covered with fungal growth)

[O-][S+]1CCON=C1c1cc(Br)cs1 (stereo not drawn) [Compound 41]
Surface score of wooden sticks treated with paint formulation, A. pullulans ([1]; 0.15% a.i. in paint): 0 | Surface score of wooden sticks treated with paint formulation, A. pullulans ([1]; 0.3% a.i. in paint): 0 | Surface score of wooden sticks treated with paint formulation, A. versicolor ([1]; 0.15% a.i. in paint): 0 | Surface score of wooden sticks treated with paint formulation, A. versicolor ([1]; 0.3% a.i. in paint): 0 | Surface score of wooden sticks treated with paint formulation, C. cladosporioides ([1]; 0.15% a.i. in paint): 0 | Surface score of wooden sticks treated with paint formulation, C. cladosporioides ([1]; 0.3% a.i. in paint): 0 | Surface score of wooden sticks treated with paint formulation, P. purpurogenum ([1]; 0.15% a.i. in paint): 2 (Growth covering between 1 and 10% of the inoculated test area) | Surface score of wooden sticks treated with paint formulation, P. purpurogenum ([1]; 0.3% a.i. in paint): 1 (Trace of growth of up to 1% coverage of the test inoculated area) | Surface score of wooden sticks treated with paint formulation, P. violacea ([1]; 0.15% a.i. in paint): 4 (Growth covering between 30 and 70% of the inoculated test area) | Surface score of wooden sticks treated with paint formulation, P. violacea ([1]; 0.3% a.i. in paint): 3 (Growth covering between 10 and 30% of the inoculated test area) | Surface score of wooden sticks treated with paint formulation, R rubra (y) ([1]; 0.15% a.i. in paint): 3 (Growth covering between 10 and 30% of the inoculated test area) | Surface score of wooden sticks treated with paint formulation, R rubra (y) ([1]; 0.3% a.i. in paint): 0 | Surface score of wooden sticks treated with paint formulation, S. chartarum ([1]; 0.15% a.i. in paint): 4 (Growth covering between 30 and 70% of the inoculated test area) | Surface score of wooden sticks treated with paint formulation, S. chartarum ([1]; 0.3% a.i. in paint): 0 | Surface score of wooden sticks treated with paint formulation, U. atrum ([1]; 0.15% a.i. in paint): 3 (Growth covering between 10 and 30% of the inoculated test area) | Surface score of wooden sticks treated with paint formulation, U. atrum ([1]; 0.3% a.i. in paint): 1 (Trace of growth of up to 1% coverage of the test inoculated area) | Surface score in a paint formulation in a mold cabinet test, 6 weeks ([2]; 0.15% in water-based paint): 0 | Surface score in a paint formulation in a mold cabinet test, 12 weeks ([2]; 0.15% in water-based paint): 2.0 | Surface score in a paint formulation in a mold cabinet test, 6 weeks ([2]; 0.3% in water-based paint): 0.5 | Surface score in a paint formulation in a mold cabinet test, 12 weeks ([2]; 0.3% in water-based paint): 3.0 | Surface score of treated mini-boards, 3 week incubation, 1500 ppm [3]: 0.6 | Surface score of treated mini-boards, 6 week incubation, 1500 ppm [3]: 2.4 | Surface score of treated mini-boards, 3 week incubation, 2500 ppm [3]: 0.2 | Surface score of treated mini-boards, 6 week incubation, 2500 ppm [3]: 1.6

O=S1(=O)CCON=C1c1cc(Br)cs1 [Compound 42]
Surface score of wooden sticks treated with paint formulation, A. pullulans ([1]; 0.15% a.i. in paint): 2 (Growth covering between 1 and 10% of the inoculated test area) | Surface score of wooden sticks treated with paint formulation, A. pullulans ([1]; 0.3% a.i. in paint): 1 (Trace of growth of up to 1% coverage of the test inoculated area) | Surface score of wooden sticks treated with paint formulation, A. versicolor ([1]; 0.15% a.i. in paint): 2 (Growth covering between 1 and 10% of the inoculated test area) | Surface score of wooden sticks treated with paint formulation, A. versicolor ([1]; 0.3% a.i. in paint): 1 (Trace of growth of up to 1% coverage of the test inoculated area) | Surface score of wooden sticks treated with paint formulation, C. cladosporioides ([1]; 0.15% a.i. in paint): 2 (Growth covering between 1 and 10% of the inoculated test area) | Surface score of wooden sticks treated with paint formulation, C. cladosporioides ([1]; 0.3% a.i. in paint): 1 (Trace of growth of up to 1% coverage of the test inoculated area) | Surface score of wooden sticks treated with paint formulation, P. purpurogenum ([1]; 0.15% a.i. in paint): 4 (Growth covering between 30 and 70% of the inoculated test area) | Surface score of wooden sticks treated with paint formulation, P. purpurogenum ([1]; 0.3% a.i. in paint): 2 (Growth covering between 1 and 10% of the inoculated test area) | Surface score of wooden sticks treated with paint formulation, P. violacea ([1]; 0.15% a.i. in paint): 4 (Growth covering between 30 and 70% of the inoculated test area) | Surface score of wooden sticks treated with paint formulation, P. violacea ([1]; 0.3% a.i. in paint): 3 (Growth covering between 10 and 30% of the inoculated test area) | Surface score of wooden sticks treated with paint formulation, R rubra (y) ([1]; 0.15% a.i. in paint): 3 (Growth covering between 10 and 30% of the inoculated test area) | Surface score of wooden sticks treated with paint formulation, R rubra (y) ([1]; 0.3% a.i. in paint): 1 (Trace of growth of up to 1% coverage of the test inoculated area) | Surface score of wooden sticks treated with paint formulation, S. chartarum ([1]; 0.15% a.i. in paint): 3 (Growth covering between 10 and 30% of the inoculated test area) | Surface score of wooden sticks treated with paint formulation, S. chartarum ([1]; 0.3% a.i. in paint): 2 (Growth covering between 1 and 10% of the inoculated test area) | Surface score of wooden sticks treated with paint formulation, U. atrum ([1]; 0.15% a.i. in paint): 5 (Growth covering more than 70t of the inoculated test area) | Surface score of wooden sticks treated with paint formulation, U. atrum ([1]; 0.3% a.i. in paint): 3 (Growth covering between 10 and 30% of the inoculated test area) | Surface score in a paint formulation in a mold cabinet test, 6 weeks ([2]; 0.15% in water-based paint): 1.5 | Surface score in a paint formulation in a mold cabinet test, 12 weeks ([2]; 0.15% in water-based paint): 3.5 | Surface score in a paint formulation in a mold cabinet test, 6 weeks ([2]; 0.3% in water-based paint): 0.5 | Surface score in a paint formulation in a mold cabinet test, 12 weeks ([2]; 0.3% in water-based paint): 3.0 | Surface score of treated mini-boards, 3 week incubation, 1500 ppm [3]: 0 | Surface score of treated mini-boards, 6 week incubation, 1500 ppm [3]: 2.0 | Surface score of treated mini-boards, 3 week incubation, 2500 ppm [3]: 0 | Surface score of treated mini-boards, 6 week incubation, 2500 ppm [3]: 2.6
